Reference: patent US8980866B2, “Complex obtained from hyaluronic acid or a salt thereof and chondroitin sulphate mixtures” (Quimera Ingenieria Biomedica, S.L., priority 2011, dated 2015)

Assay: Apparent viscosity by rheometry (HAAKE RheoStress RS300, stress controlled mode, Cross model)
Assay type: physicochemical
Conditions: for Viscosity, γ = 1: shear rate 1 s^−1, 25° C.; for Viscosity, γ = 1 / Viscosity, γ = 10 / Viscosity, γ = 100 / Viscosity, γ = 200: Milli-Q water, concentration per Table 3; for Viscosity, γ = 10: shear rate 10 s^−1, 25° C.; for Viscosity, γ = 100: shear rate 100 s^−1, 25° C.; for Viscosity, γ = 200: shear rate 200 s^−1, 25° C.
Protocol: Aqueous solutions of HA:CS mixtures (control) and atomized complexes at different weight ratios of sodium hyaluronate and chondroitin sulphate were prepared for rheological characterization. Their rheological profile was determined using a HAAKE RheoStress RS300 rheometer in stress controlled mode. A 1° cone and 35 mm diameter plate was used.
Controls and 1:1 and 1:10 complexes were reconstituted in Milli-Q water.
Based on an applied shear stress, viscosity of the samples was measured at 25° C. All samples fitted in a Cross model, which allowed to compare the results obtained.

| Substance | Viscosity, γ = 1 | Viscosity, γ = 10 | Viscosity, γ = 100 | Viscosity, γ = 200 | Viscosity loss, γ = 1 (shear rate 1 s^−1, difference in viscosity of a sample with respect its control) | Viscosity loss, γ = 10 (shear rate 10 s^−1, difference in viscosity of a sample with respect its control) | Viscosity loss, γ = 100 (shear rate 100 s^−1, difference in viscosity of a sample with respect its control) | Viscosity loss, γ = 200 (shear rate 200 s^−1, difference in viscosity of a sample with respect its control) |
| --- | --- | --- | --- | --- | --- | --- | --- | --- |
| sodium hyaluronate [Sample 1] | 4884.3 mPa · s | 2307.0 mPa · s | 578.0 mPa · s | 375.0 mPa · s |  |  |  |  |
| sodium hyaluronate [Sample 2] | 3378.5 mPa · s | 1924.5 mPa · s | 522.0 mPa · s | 326.5 mPa · s | 30.8% | 16.5% | 9.6% | 12.9% |
